Assay results taken from patent US20220178936A1, “A SENSITIVE LC-MS ASSAY TO MEASURE CURCUMINOIDS IN COMPLEX BIOLOGICAL SAMPLES” (THE REGENTS OF THE UNIVERSITY OF CALIFORNIA, priority 2019, published 2022).
Like-named read-outs stand apart in the source and are kept apart here. Blank lines part the entries; values can stand above or below the compound they belong to.

How the values were obtained:
[1] = Curcuminoids in murine tumor, brain and liver after PHRAD 129; settings: for signal in murine tumor extract: oral PHRAD 129, 100 mg/kg daily
Method: Murine soft tissues. Mouse liver, brain, and tumor samples were collected from animals that had been administered a proprietary turmeric formulation (PHRAD 129, Aveta Biomics, Bedford, Mass.). After dissection, the tissues were weighed, frozen and stored at −80° C.
The samples were homogenized in a bead mill (thrice for 10 seconds each time at RT). The homogenate was vigorously mixed (5 min, RT), centrifuged (16,000 g, 5 min at RT), and the supernatant was transferred to microcentrifuge tubes and dried in a vacuum centrifuge. The dried samples were tightly capped and stored at −80° C.

[2] = in vivo
Method: (§1) Biological samples: Human plasma. […] The tubes were centrifuged (1000 g, 15 min), and plasma was collected and stored at −80° C.
(§2) Extraction of human plasma samples and BF2 complex formation: Plasma samples were prepared in duplicate by transferring aliquots of human plasma (100 uL) to 1.5 mL microcentrifuge tubes. The internal standards (1 pmol d6C and 5 pmol d6TC in 10 uL of methanol) were added to each sample. They were briefly vortexed, then treated with cold 10 mM acetic acid in methanol (1 mL). After rigorous mixing, incubation (4° C., 60 min) and centrifugation (16,000 g, Rt, 5 min) supernatants were transferred to clean microcentrifuge tubes and dried in a vacuum centrifuge. The dried samples were tightly capped and stored in −80° C.
(§3) Analysis of the blood collected at 0, 1, 2, 3, 4, and 5 hours after compound ingestion on Day 1 and 0, 1, 2, 3, and 4 hours on Day 17 was performed.

[3] = BF2-curcuminoid complex stability (hydrolysis, autosampler); format: physicochemical
Method: Complex stability: The BF2-curcumin complexes slowly hydrolyze in water and water/methanol mixtures with a half-life of a few hours at 4° C. For applicability to an LC/MS assay on biological samples containing amounts of curcuminoids as low as 50 fmol/sample, and using an aqueous chromatographic mobile phase, it was necessary to use conditions that minimized hydrolysis. This breakdown was slowed but not averted by storing the samples at even lower temperatures (−80° C.) prior to analysis. The breakdown of the derivatives was averted by performing the reaction in glacial acetic acid and directly injecting the reaction mixture onto the LC column. Even after the injection of hundreds of samples there has been no noticeable deterioration of chromatographic reliability. Furthermore, by using a short 10 minute chromatographic gradient the hydrolysis of the complexes during chromatography was minimized. The stability of BF2-curcuminoid complex was tested to validate the assay for overnight analysis. Eight QC-mid samples were prepared, stored tightly capped to minimize contact with atmospheric moisture in the autosampler at 20° C., and each sample was analyzed every hour for up to seven hours. Except for BF2-TC, the curcuminoid complexes were stable throughout the 7 hour test period with no significant decline in peak intensity (FIG. 4).

[4] = In vivo temporal profile of plasma curcuminoids and metabolites in a human volunteer; settings: Longvida four tablets daily for 17 consecutive days
Method: as §1, §2, §3

Compound: O=C(C=Cc1ccc(O)cc1)CC(=O)C=Cc1ccc(O[C@@H]2O[C@H](C(=O)O)[C@@H](O)[C@H](O)[C@H]2O)cc1 [BDMCG, bisdemethoxycurcumin glucuronide]
signal in mouse brain extract ([1]; mouse, in vivo): not detected
signal in mouse liver extract ([1]; mouse, in vivo): not detected
signal in human plasma extract [2]: intense peaks

Compound: Demethoxycurcumin
signal in mouse brain extract ([1]; after PHRAD 129): measurable peaks
signal in mouse liver extract ([1]; after PHRAD 129): measurable peaks
signal in murine tumor extract [1]: strong signals

Compound: demethoxycurcumin glucuronide [DMCG]
signal in mouse brain extract ([1]; after PHRAD 129): not detected
signal in mouse liver extract ([1]; after PHRAD 129): not detected
signal in murine tumor extract [1]: not detected
signal in human plasma extract [4]: intense peaks

Compound: tetrahydrocurcumin
signal in murine tumor extract [1]: strong signals

Second part, the compound after the results:

hydrolysis half-life ([3]; water and water/methanol mixtures, 4° C.): a few hours
Compound: COc1cc(C=CC2=CC(C=Cc3ccc(O)c(OC)c3)=[O+][B-](F)(F)O2)ccc1O [BF2-C]

stability in autosampler (peak intensity) ([3]; glacial acetic acid reaction mixture, 20° C., 7 hour test period, QC-mid): slight loss of signal intensity
Compound: COc1cc(CCC2=CC(CCc3ccc(O)c(OC)c3)=[O+][B-](F)(F)O2)ccc1O [BF2-TC]

signal in mouse brain extract ([1]; mouse, in vivo): measurable peaks
Compound: COc1cc(/C=C/C(=O)CC(=O)/C=C/c2ccc(O)c(OC)c2)ccc1O [Curcumin, curcumin]

signal in mouse liver extract ([1]; after PHRAD 129): measurable peaks
signal in murine tumor extract [1]: strong signals
Compound: bisdemethoxycurcumin
